“And” between values parts separate entries of the source, which are not always exact repeats. Identical values can stand only once. After the bases stand the sugars from the 5' end (letter, count) and the backbone: PS all phosphorothioate, else s phosphorothioate and o phosphodiester by linkage. Methylation of C is not given here. e = 2'-O-(2-methoxyethyl) (MOE); k = constrained ethyl (cEt); d = 2'-deoxy (DNA); m = 2'-O-methyl
Biological target: HSD17B13
Conditions: ASO, HepaRG

Sequence	target mRNA inhibition (1 µM) [%]	further results
CTTACGACAGGTCATC (sugars k3 d10 k3, PS)	39	–
CTTAGGAAAGCTCATG (sugars k3 d10 k3, PS)	0	–
CTTAGTACCAAGACAC (sugars k3 d10 k3, PS)	60	–
CTTATACTGAAGGCTG (sugars k3 d10 k3, PS)	48	–
CTTATGTAATAGCCAG (sugars k2 d10 k3 e1, PS)	70	–
CTTATGTAATAGCCAG (sugars kkdddddddddkekek, PS)	61	–
CTTAUGTAATAGCCAG (sugars k3 d1 m1 d8 k3, PS)	75	target mRNA inhibition (0.02 µM): 0%; target mRNA inhibition (0.078 µM): 0%; target mRNA inhibition (0.313 µM): 34%; target mRNA inhibition (1.25 µM): 65%; target mRNA inhibition (5 µM): 91%
CTTCATAGTGGACTTC (sugars kkdddddddddkekek, PS)	45	–
CTTCTCTTGGGTCCAT (sugars k3 d10 k3, PS)	51	–
CTTCTTACGACTTCAT (sugars k3 d10 k3, PS)	45	–
CTTGAACAGTCTTAAA (sugars k3 d9 k3 e1, PS)	43	–
CTTGAACAGTCTTAAA (sugars k3 d10 k3, PS)	39	–
CTTGACAATGGTTGAT (sugars k3 d10 k3, PS)	54	–
CTTGACTAAGGAGCTA (sugars k3 d10 k3, PS)	24	–
CTTGAGAGTGATTGCC (sugars k3 d10 k3, PS)	64	–
CTTGATGTAGTGGGAG (sugars k3 d9 k3 e1, PS)	62	–
CTTTAGTCAACAGTAC (sugars k3 d10 k3, PS)	12	–
CTTTCTATCAACCTGC (sugars k3 d10 k3, PS)	68	–
CTTTGAGACTCTTGTT (sugars k3 d9 k3 e1, PS)	57	–
CTTTGAGACTCTTGTT (sugars kkdddddddddkekek, PS)	42	–
CTTTTGTCCACCTTTA (sugars k3 d10 k3, PS)	76	–
CTTTTTATAGACTGGG (sugars kkdddddddddkekek, PS)	37	–
GAAACTCACTTCCTAC (sugars k3 d10 k3, PS)	56	–
GAAACTTGATCTCTTA (sugars k3 d1 m1 d8 k3, PS)	59	–
GAAACTTGATCTCTTA (sugars k3 d9 k3 e1, PS)	79	target mRNA inhibition (0.02 µM): 0%; target mRNA inhibition (0.078 µM): 11%; target mRNA inhibition (0.313 µM): 60%; target mRNA inhibition (1.25 µM): 82%; target mRNA inhibition (5 µM): 90%

Sequence	target mRNA inhibition (1 µM) [%]	further results
GAAAGATGGAATGAGC (sugars k3 d10 k3, PS)	54	–
GAAATTGATACACCAA (sugars k3 d10 k3, PS)	67	–
GAAATTTGTGAACCTG (sugars k3 d10 k3, PS)	32	–
GAACAATCTCCCCAGC (sugars k3 d10 k3, PS)	63	–
GAACAGTCTTAAACCT (sugars k3 d1 m1 d8 k3, PS)	75	target mRNA inhibition (0.02 µM): 0%; target mRNA inhibition (0.078 µM): 24%; target mRNA inhibition (0.313 µM): 53%; target mRNA inhibition (1.25 µM): 66%; target mRNA inhibition (5 µM): 69%
GAACAGTCTTAAACCT (sugars kkdddddddddkekek, PS)	63	–
GAACCCAGTATTCACA (sugars k3 d10 k3, PS)	0	–
GAAGAAGTGCTTTTGT (sugars k3 d10 k3, PS)	50	–
GAAGATTAGTTAACCT (sugars k3 d10 k3, PS)	13	–
GAAGTATGTGAACTCC (sugars k3 d10 k3, PS)	56	–
GAAGTGATCCATATTC (sugars k3 d10 k3, PS)	44	–
GAAGTTAGTATAGTTA (sugars kkdddddddddkekek, PS)	56	–
GAAGUTAGTATAGTTA (sugars k3 d1 m1 d8 k3, PS)	43	–
GAATACGCTGAGAGTT (sugars k3 d10 k3, PS)	11	–
GAATAGAGTTGCACCG (sugars k3 d10 k3, PS)	55	–
GAATAGCAAGCCAACA (sugars k3 d9 k3 e1, PS)	30	–
GAATAGCAAGCCAACA (sugars k3 d10 k3, PS)	64	target mRNA inhibition (0.02 µM): 0%; target mRNA inhibition (0.078 µM): 4%; target mRNA inhibition (0.313 µM): 12%; target mRNA inhibition (1.25 µM): 20%; target mRNA inhibition (5 µM): 40% and 50%
GAATAGCAAGCCAACA (sugars kkdddddddddkekek, PS)	27	–
GAATAGTCTTCAGCAA (sugars k3 d10 k3, PS)	51	–
GAATGCTACTTGAACA (sugars k3 d9 k3 e1, PS)	56	–
GAATTGCTCACCCTTT (sugars k3 d10 k3, PS)	24	–
GACAACAAACAATGGG (sugars k3 d10 k3, PS)	39	–
GACAATTAACATTCGG (sugars k3 d10 k3, PS)	69	–
GACAGACCAAGTAGCT (sugars k3 d10 k3, PS)	39	–
GACAGTAGATTTGGTA (sugars k3 d10 k3, PS)	34	–

Sequence	target mRNA inhibition (1 µM) [%]	further results
GACAGTTGAGTAGTGT (sugars k3 d10 k3, PS)	46	–
GACATGAGGTTTTGAT (sugars k3 d10 k3, PS)	52	–
GACATGAGGTTTTGAT (sugars kkdddddddddkekek, PS)	55	–
GACCTCAAATGTCTTG (sugars k3 d10 k3, PS)	12	–
GACGATGTGGCCATGA (sugars k3 d10 k3, PS)	42	–
GACTAAGGAGCTAGAT (sugars k3 d10 k3, PS)	25	–
GACTACATTAACACCA (sugars k3 d10 k3, PS)	58	–
GACTCCAAGTAGGAGT (sugars k3 d10 k3, PS)	0	–
GACTGTTGAGCTCAAA (sugars k3 d10 k3, PS)	52	–
GAGAAGATCGGCTGGA (sugars k3 d10 k3, PS)	6	–
GAGAAGGCGGTATCAT (sugars k3 d10 k3, PS)	48	–
GAGAATTGTTTAGTTC (sugars k3 d10 k3, PS)	47	–
GAGACATGAGGTTTTG (sugars k3 d1 m1 d8 k3, PS)	61	–
GAGACATGAGGTTTTG (sugars k3 d9 k3 e1, PS)	61	–
GAGACATGAGGTTTTG (sugars k3 d10 k3, PS)	77	target mRNA inhibition (0.02 µM): 0%; target mRNA inhibition (0.078 µM): 0%; target mRNA inhibition (0.313 µM): 22%; target mRNA inhibition (1.25 µM): 65%; target mRNA inhibition (5 µM): 88%
GAGATAAAGCTGCCTG (sugars k3 d9 k3 e1, PS)	55	–
GAGCTAGACAATTGCA (sugars k3 d10 k3, PS)	73	–
GAGGATAGTCCATGCA (sugars k3 d10 k3, PS)	59	–
GAGGATAGTGAACATA (sugars k3 d10 k3, PS)	50	–
GAGGGTCCACTTTTGG (sugars k3 d10 k3, PS)	23	–
GAGTATTTCCTCTGGG (sugars k3 d10 k3, PS)	23	–
GAGTTATTGTAGGGAT (sugars k3 d10 k3, PS)	69	–
GAGTTGCACCGTTTTG (sugars k3 d9 k3 e1, PS)	62	–
GATACACCAATGCAGT (sugars k3 d10 k3, PS)	73	–
GATACTATTCTCCAAC (sugars k3 d10 k3, PS)	44	–

Sequence	target mRNA inhibition (1 µM) [%]	further results
GATAGAGCACATGGCC (sugars k3 d10 k3, PS)	20	–
GATAGTCCATGCAAAA (sugars k3 d10 k3, PS)	64	–
GATATACGATGGAACA (sugars k3 d10 k3, PS)	46	–
GATATACTGTCCCAGC (sugars k3 d10 k3, PS)	34	–
GATATGTCAATACTCC (sugars k3 d10 k3, PS)	59	–
GATATTATGTTCTTGG (sugars k3 d10 k3, PS)	59	–
GATATTCTGTGGCATG (sugars k3 d9 k3 e1, PS)	71	target mRNA inhibition (0.02 µM): 8%; target mRNA inhibition (0.078 µM): 0%; target mRNA inhibition (0.313 µM): 43%; target mRNA inhibition (1.25 µM): 65%; target mRNA inhibition (5 µM): 80%
GATAUTCTGTGGCATG (sugars k3 d1 m1 d8 k3, PS)	60	–
GATCAAATGTATGTGC (sugars k3 d10 k3, PS)	25	–
GATCCTATATACATCC (sugars k3 d10 k3, PS)	49	–
GATCTAAAACTGAAGG (sugars k3 d10 k3, PS)	44	–
GATCTAGAACACTTGC (sugars k3 d10 k3, PS)	27	–
GATGAGAGTCTTTCTT (sugars k3 d10 k3, PS)	26	–
GATGCTAAAAGCTCAC (sugars k3 d10 k3, PS)	46	–
GATGCTCCATAATAAT (sugars k3 d9 k3 e1, PS)	15	–
GATGGTAAGGAGTAGT (sugars k3 d10 k3, PS)	28	–
GATGTAGTGGGAGTCG (sugars k3 d10 k3, PS)	67	–
GATGTCAGACCTCTGT (sugars k3 d10 k3, PS)	6	–
GATGTTGACCTCAAAT (sugars k3 d10 k3, PS)	0	–
GATTAAGCAGAATTGT (sugars k3 d9 k3 e1, PS)	28	–
GATTAATTCCCTTCCA (sugars k3 d10 k3, PS)	30	–
GATTGAGTTCTCCACT (sugars k3 d10 k3, PS)	45	–
GATTGCATAAGAGCCA (sugars k3 d10 k3, PS)	82	target mRNA inhibition (0.02 µM): 6%; target mRNA inhibition (0.078 µM): 31%; target mRNA inhibition (0.313 µM): 57%; target mRNA inhibition (1.25 µM): 67%; target mRNA inhibition (5 µM): 58%

— the OligoGym collection
